Test [1] can be described thus: microbe, parasite or virus in culture. Conditions: Mycobacterium tuberculosis, 96 h, read-out: pIC50 (converted).
The nature of test [2]: microbe, parasite or virus in culture. Conditions: Mycobacterium tuberculosis, 72 h, read-out: pIC50 (converted).

On to `CCN(CC)CCS(=O)(=O)c1ccccc1`, for which the IC50 in test [1] was > 501 µM; in test [2] it was 300 µM.
For `CCOC(=O)N1CCN(Cc2nc(C3CC3)no2)CC1`, the IC50 in test [1] is 109 µM; in test [2], 93.9 µM.
With `O=C(c1cscn1)N1CCN(c2ccc(Cl)cn2)CC1`, the IC50 is 249 µM in test [1] and 116 µM in test [2].
Turning to `CC(=O)c1c(F)cccc1N1CCOCC1`, the IC50 in test [1] and in test [2] was > 501 µM each time.
In the case of `CN1CCc2nc(NC(=O)CC(C)(C)C)sc2C1`, the values for the IC50 in test [1] and in test [2] were 127 µM and 210 µM, respectively.
With `O=C(Nc1ccccn1)C1Cc2ccccc2O1` (stereo not given), the IC50 in test [1] is 277 µM; in test [2] it was 268 µM.
`O=c1c2ccccc2cnn1CN1CCCC1`: the IC50 in test [1] and in test [2] was > 501 µM throughout.
`CC(C)Sc1nc(-c2ccccn2)no1`: the IC50 was 312 µM in test [1] and 320 µM in test [2].
The matching figures for `O=S(=O)(CCN1CCC[C@H]1CO)c1ccccc1`: > 501 µM and 198 µM.
On to `NC(=O)C1CCN(CCOc2ccc(Br)cc2)C1` (stereo not given), for which the IC50 in test [1] and in test [2] was > 501 µM throughout.
As to `Cc1cc(C(=O)N(C)C[C@H](O)CO)cc(Cl)c1Br`, the IC50 is 51.9 µM in test [1] and 403 µM in test [2].
Consider `COc1ccc(OC)c(NC(=O)c2ccccn2)c1`, for which the results for the IC50 in test [1] and in test [2] were 156 µM and 173 µM, respectively.
In the case of `CCCN(CCO)CC(=O)N1CCCC(C)C1` (stereo not given), the IC50 in test [1] and in test [2] was > 501 µM in each case.
With `CN(Cc1ccc2c(c1)OCO2)C(=O)Cc1cccs1`, the IC50 in test [1] is 239 µM; in test [2], 199 µM.
Consider `O=S(=O)(NCc1nccs1)N1CCc2ccccc2C1`, for which the IC50 was 146 µM in test [1] and 133 µM in test [2].
On to `NC(=O)C(Sc1nncs1)c1ccc(Br)cc1` (stereo not given), for which the IC50 is 266 µM in test [1] and 412 µM in test [2].
Taken in the same sequence, the figures for `CCNc1nnc(SCc2ncccc2C)s1` were 58 µM and 96.1 µM.
For the compound `COc1cccc(N2CCC(N)C2)c1` (stereo not given), the IC50 in test [1] was 276 µM; in test [2], 294 µM.
On to `CC(C)(C)OC(=O)N1CCC(n2cc(N)cn2)CC1`, for which the results for the IC50 in test [1] and in test [2] were 287 µM and 202 µM, respectively.
Consider `Cc1cnn(CCNCc2cccc3c2OCO3)c1`, for which the IC50 in test [1] was > 501 µM; in test [2], 258 µM.
As to `O=c1ccc(Br)cn1Cc1noc(C2CC2)n1`, the IC50 in test [1] was 204 µM; in test [2] it was 78.4 µM.
The matching figures for `CN(CC(=O)Nc1sccc1C(N)=O)Cc1cccs1`: > 501 µM and 117 µM.
For the compound `Cc1cnn(CCNc2ccc(F)cn2)c1`, the IC50 in test [1] was > 501 µM; in test [2], 365 µM.
As to `CN(CC(N)=O)Cc1ccccc1N1CCCC1`, the IC50 in test [1] was > 501 µM; in test [2], 278 µM.
In the case of `CC[C@H](N)C(=O)N(C)Cc1cccc(OC(F)(F)F)c1`, the IC50 in test [1] was > 501 µM; in test [2] it was 199 µM.
Take `O=C(CNC(=O)c1cccs1)c1ccccc1`: the IC50 in test [1] and in test [2] was > 501 µM each time.
Regarding `Cc1cccc(C(=O)NCC(C)N2CCCC2)n1` (stereo not given), the IC50 was > 501 µM in test [1] and 306 µM in test [2].
Regarding `NCc1cnn(-c2cccc(Cl)c2)c1`, the figures for the IC50 in test [1] and in test [2] were 260 µM and 258 µM, respectively.
On to `NCCc1ccc2cc[nH]c2c1`, for which the IC50 was > 501 µM in test [1] and 212 µM in test [2].
Taken in the same sequence, the figures for `CCCc1nnc(NCc2ccc(C)cn2)o1` were 212 µM and 138 µM.
For the compound `COC(=O)C1CC(c2ccccc2)=NO1` (stereo not given), the IC50 in test [1] and in test [2] was > 501 µM in each case.
Take `CC(C)c1ccoc1C(=O)N(C)c1cc(C#N)ccn1`: the IC50 in test [1] is > 501 µM; in test [2] it was 140 µM.
For the compound `COCCC(=O)NCC(C)c1ccc(F)c(F)c1` (stereo not given), the IC50 in test [1] and in test [2] was > 501 µM in each case.
For `CNc1cc(CN(C)Cc2cccs2)ccn1`, the IC50 in test [1] and in test [2] was 276 µM each time.
In the case of `COC(=O)c1snc(-c2ccccc2)c1N`, the IC50 was 97 µM in test [1] and 103 µM in test [2].
For `COc1ncccc1CNS(=O)(=O)c1cccc(Cl)c1`, the IC50 in test [1] is 311 µM; in test [2], 230 µM.
Turning to `CCCn1c(O)nnc1SCc1cccc(OC)n1`, the IC50 in test [1] is 436 µM; in test [2] it was 256 µM.
The matching figures for `O=C(Nc1cc[nH]n1)c1csc(I)c1`: > 501 µM and 193 µM.
The matching figures for `NC(=O)C(Sc1nnc[nH]1)c1ccc(Br)cc1` (stereo not given): > 501 µM and > 501 µM.
`CCNC(=O)C1CCCN(c2ccncc2Cl)C1` (stereo not given): the IC50 in test [1] is 281 µM; in test [2], 129 µM.
The matching figures for `Cc1cc(NC(=O)CN(C)Cc2ccccc2)no1`: 243 µM and 266 µM.
As for `O=C(NCCNC(=O)C1CCCC1)c1ccccc1O`, the results for the IC50 in test [1] and in test [2] were 402 µM and 229 µM, respectively.
Turning to `CC(=O)c1ccc(S(C)(=O)=O)c(N2CCC(C)(C)C2)c1`, the IC50 in test [1] and in test [2] was > 501 µM each time.
Turning to `CNC(=O)COc1cccc(OCC2CC2)c1`, the values for the IC50 in test [1] and in test [2] were 188 µM and > 501 µM, respectively.
For `Oc1cccc(CNc2cccnc2-n2cccn2)c1`, the values for the IC50 in test [1] and in test [2] were 74.1 µM and 222 µM, respectively.
With `CC(Nc1ccc(F)cc1)C(=O)N1CCCC1` (stereo not given), the IC50 is 68.6 µM in test [1] and 106 µM in test [2].
With `Cc1cccc(C[S+]([O-])CC(=O)NCC2CC2)c1` (stereo not given), the IC50 in test [1] and in test [2] was > 501 µM each time.
In the case of `CC(C)(C)c1noc(CCC(=O)N2CCSCC2)n1`, the IC50 in test [1] and in test [2] was > 501 µM each time.
As for `NC(=O)CCS(=O)(=O)CCN1CCCCCC1`, the IC50 is > 501 µM in test [1] and 158 µM in test [2].
Regarding `CCC(C)(C)NC(=O)c1nnn(-c2ccccc2)c1C`, the values for the IC50 in test [1] and in test [2] were 282 µM and 311 µM, respectively.
In the case of `N[C@@H]1C[C@H]1c1c(F)cccc1F`, the IC50 in test [1] and in test [2] was > 501 µM in each case.
Consider `CN(C)c1ccc(Br)c(S(=O)(=O)NC2CCNC2)c1` (stereo not given), for which the values for the IC50 in test [1] and in test [2] were 263 µM and 232 µM, respectively.
Taken in the same sequence, the figures for `NCCc1ccc(OCC(F)(F)F)nc1` were 211 µM and 111 µM.
With `CCN(CC)c1ccc(C(=O)Nc2cc[nH]n2)cn1`, the IC50 is > 501 µM in test [1] and 251 µM in test [2].
Taken in the same sequence, the figures for `CCC1(CC)CCCN(C(=O)CS(=O)(=O)CC)CC1` were 50.9 µM and 72.7 µM.
As to `Cc1ccc(OC(C)CN)cc1` (stereo not given), the IC50 was 166 µM in test [1] and 77 µM in test [2].
Taken in the same sequence, the figures for `COCCCOc1ccc2c(c1)OCCO2` were 109 µM and 92.8 µM.
On to `O=C(CSc1cnn[nH]1)N1CCc2ccccc2C1`, for which the IC50 in test [1] and in test [2] was > 501 µM in each case.
For `COCCN1CCN(CCS(=O)(=O)C(F)(F)F)CC1`, the IC50 was 293 µM in test [1] and 131 µM in test [2].
The matching figures for `CC1(C)Oc2ccc(NC(=O)C3CCOC3)cc2O1` (stereo not given): 261 µM and 289 µM.
Turning to `Cc1cc(S(=O)(=O)NC(CN)C2CC2)c(F)cc1F` (stereo not given), the IC50 in test [1] is 18.9 µM; in test [2], > 501 µM.
Taken in the same sequence, the figures for `CCOc1ccc(CNS(=O)(=O)N(C)C)cc1C` were > 501 µM and 262 µM.
Taken in the same sequence, the figures for `CNC(=O)COC(=O)Cc1ccc(Br)cc1` were > 501 µM and > 501 µM.
For `O=C(Nc1ccnc(CO)c1)c1ccc(F)cc1I`, the IC50 is 433 µM in test [1] and 367 µM in test [2].
As for `CCS(=O)(=O)N(C)C(=O)CCc1c[nH]c2ccccc12`, the IC50 in test [1] was 97.3 µM; in test [2], 44.8 µM.
For the compound `CN(CC1COc2ccccc2O1)C(=O)C1CCC1` (stereo not given), the results for the IC50 in test [1] and in test [2] were 173 µM and 182 µM, respectively.
The matching figures for `CCC1Oc2c(Cl)cccc2NC1=O` (stereo not given): > 501 µM and > 501 µM.
On to `CCN(CCS(=O)(=O)c1ccccc1)CC(=O)N(C)C`, for which the results for the IC50 in test [1] and in test [2] were 126 µM and 130 µM, respectively.
Take `CCC(C)(C)NC(=O)c1ccn(-c2ccccc2F)n1`: the IC50 was 350 µM in test [1] and 361 µM in test [2].
Turning to `CC(C)(N)C(O)c1ccc(Br)cc1` (stereo not given), the figures for the IC50 in test [1] and in test [2] were > 501 µM and 126 µM, respectively.
As for `NC1CCCc2occc21` (stereo not given), the IC50 in test [1] is 245 µM; in test [2] it was 142 µM.
Taken in the same sequence, the figures for `O=C(CNCC1CC1)Nc1ccc(F)cc1` were > 501 µM and 215 µM.
In the case of `COc1cc(CNC(=O)C(C)OCC(C)C)ccn1` (stereo not given), the IC50 in test [1] and in test [2] was > 501 µM each time.
Take `O=C(CCNCCO)c1ccccc1`: the IC50 in test [1] was > 501 µM; in test [2], 137 µM.
`NC1CCN(c2ccccc2OC(F)F)C1` (stereo not given): the figures for the IC50 in test [1] and in test [2] were > 501 µM and 135 µM, respectively.
Consider `CCOc1cccc(CN(C)S(=O)(=O)c2cccs2)n1`, for which the figures for the IC50 in test [1] and in test [2] were 191 µM and 144 µM, respectively.
On to `COc1ccc(-c2nc(CCN)co2)cc1`, for which the IC50 in test [1] is 71.4 µM; in test [2] it was 80.5 µM.
Turning to `CC(C)n1ccc(CC(=O)N2CCCC2)n1`, the IC50 in test [1] and in test [2] was > 501 µM throughout.
As for `COc1ccccc1CNc1ccc(C#N)cn1`, the IC50 in test [1] is 279 µM; in test [2] it was 194 µM.
With `NC(=O)C1CCN(C(=O)CCc2ccc(Cl)cc2Cl)C1` (stereo not given), the IC50 in test [1] is 284 µM; in test [2] it was 157 µM.
As for `CCN1CCCC1CNC(=O)c1cccc(C)n1` (stereo not given), the IC50 in test [1] and in test [2] was > 501 µM in each case.
For `O=C(CNCC1CC1)Nc1ccccc1`, the IC50 in test [1] is > 501 µM; in test [2], 171 µM.
As to `O=C(CC1C=CCC1)N1CCN(Cc2ccco2)CC1` (stereo not given), the figures for the IC50 in test [1] and in test [2] were 228 µM and 184 µM, respectively.
The matching figures for `CN1CCN(S(=O)(=O)N2CCCC2)Cc2ccccc21`: 271 µM and 155 µM.
The matching figures for `CCCN(CCC(=O)NC(=O)NC)CC1CCCCO1` (stereo not given): 240 µM and 93.8 µM.

The values are drawn from ChEMBL document CHEMBL3988442, “University of Dundee, Small-Polar-MMV Screening Library” (2021).
